Results reported in the NIST ThermoML archive (doi:10.1016/j.jct.2014.07.018).

Experiment: molar heat capacity at constant pressure
Conditions: 101.33 kPa, Vacuum adiabatic calorimetry

CCC[n+]1ccn(C)c1.[Br-] [1-methyl-3-propylimidazolium bromide]
Conditions	molar heat capacity at constant pressure [J/K/mol]
147.83 K, Crystal 2	133.2
148.11 K, Glass	140.8
149.71 K, Crystal 2	134.1
149.83 K, Crystal 2	134.2
150 K, Crystal 2	134.3
150 K, Glass	141.9
150.11 K, Glass	141.9
151.82 K, Crystal 2	135.2
151.83 K, Crystal 2	135.2
152.11 K, Glass	143.1
153.84 K, Crystal 2	136.2
153.93 K, Crystal 2	136.3
154.12 K, Glass	144.2
155.85 K, Crystal 2	137.2
156.04 K, Crystal 2	137.3
156.13 K, Glass	145.4
157.86 K, Crystal 2	138.3
158.13 K, Glass	146.5
158.16 K, Crystal 2	138.4
159.86 K, Crystal 2	139.3
160 K, Crystal 2	139.3
160 K, Glass	147.5
160.14 K, Glass	147.6
160.27 K, Crystal 2	139.5
161.87 K, Crystal 2	140.2
162.15 K, Glass	148.7
162.38 K, Crystal 2	140.6
163.88 K, Crystal 2	141.3
164.17 K, Glass	149.8
164.5 K, Crystal 2	141.6
165.89 K, Crystal 2	142.3
166.18 K, Glass	151
166.61 K, Crystal 2	142.6
167.9 K, Crystal 2	143.3
168.19 K, Glass	152.2
168.73 K, Crystal 2	143.7
169.91 K, Crystal 2	144.4
170 K, Crystal 2	144.4
170 K, Glass	153.2
170.21 K, Glass	153.3
170.84 K, Crystal 2	144.8
171.92 K, Crystal 2	145.4
172.22 K, Glass	154.5
172.95 K, Crystal 2	146.1
173.94 K, Crystal 2	146.6
174.24 K, Glass	155.6
175.06 K, Crystal 2	147.4
175.95 K, Crystal 2	147.9
176.26 K, Glass	156.8
177.17 K, Crystal 2	148.7
177.96 K, Crystal 2	149.1
178.28 K, Glass	158
179.28 K, Crystal 2	149.8
179.98 K, Crystal 2	150.2
180 K, Crystal 2	150.2
180 K, Glass	159.1
180.3 K, Glass	159.2
181.39 K, Crystal 2	150.9
182 K, Crystal 2	151.2
182.32 K, Glass	160.4
183.49 K, Crystal 2	152
184.02 K, Crystal 2	152.2
184.34 K, Glass	161.7
185.6 K, Crystal 2	153
186.04 K, Crystal 2	153.2
186.37 K, Glass	162.9
187.7 K, Crystal 2	154.1
188.06 K, Crystal 2	154.3
188.39 K, Glass	164.2
189.8 K, Crystal 2	155.2
190 K, Crystal 2	155.3
190 K, Glass	164.3
190.08 K, Crystal 2	155.3
190.42 K, Glass	165.5
191.9 K, Crystal 2	156.2
192.1 K, Crystal 2	156.3
192.45 K, Glass	166.9
194 K, Crystal 2	157.3
194.12 K, Crystal 2	157.4
194.48 K, Glass	168.3
196.1 K, Crystal 2	158.4
196.15 K, Crystal 2	158.4
196.52 K, Glass	169.7
198.17 K, Crystal 2	159.4
198.2 K, Crystal 2	159.4
198.56 K, Glass	171.3
200 K, Crystal 2	160.4
200 K, Glass	171.3
200.2 K, Crystal 2	160.5
200.29 K, Crystal 2	160.5
200.61 K, Glass	173
202.22 K, Crystal 2	161.6
202.39 K, Crystal 2	161.7
202.66 K, Glass	174.7
204.25 K, Crystal 2	162.6
204.48 K, Crystal 2	162.8
204.71 K, Glass	177.1
206.28 K, Crystal 2	163.8
206.57 K, Crystal 2	163.9
206.79 K, Glass	179.5
208.31 K, Crystal 2	164.9
208.66 K, Crystal 2	165.1
208.84 K, Glass	183.4
210 K, Crystal 2	165.9
210 K, Glass	183.6
210.35 K, Crystal 2	166
210.75 K, Crystal 2	166.3
210.87 K, Glass	189.3
212.38 K, Crystal 2	167.3
212.84 K, Crystal 2	167.5
212.85 K, Glass	201.5
214.41 K, Crystal 2	168.5
214.71 K, Liquid	229.7
214.92 K, Crystal 2	168.8
216.44 K, Crystal 2	169.7
216.52 K, Liquid	256.1
217 K, Crystal 2	170.1
218.48 K, Crystal 2	170.9
218.48 K, Liquid	258.4
219.08 K, Crystal 2	171.3
220 K, Crystal 2	171.8
220 K, Liquid	258.4
220.51 K, Crystal 2	172.1
220.52 K, Liquid	259.6
221.15 K, Crystal 2	172.5
222.55 K, Crystal 2	173.3
223.22 K, Crystal 2	173.7
224.59 K, Crystal 2	174.5
225.29 K, Crystal 2	175
226.63 K, Crystal 2	175.8
227.36 K, Crystal 2	176.2
